The text below walks through data of patent publication US20240239806A1, “COMPOUNDS, COMPOSITIONS AND METHODS OF TREATING DISORDERS” (Chengdu Anticancer Bioscience, Ltd., priority 2021, published 2024).

The test system of one test is RPEMYC^H2B-GFP cells. Briefly: Phenotypic screening assay (mitotic arrest, polyploidy). The test is classed as cell-based. The conditions noted are these: 1 nM to 30 μM, read-out: Min. Effective conc. for Polyploidy (≥5%). In short, it runs like this:
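RPE cells expressing MYC and H2B-EGFP treated with compound at 1 nM–30 μM; mitotic index scored at 24 h and polyploidy (DNA content) at 48 h by automated imaging, with reads at 24, 48 or 72 h. Hits show transient mitotic arrest followed by polyploid accumulation.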
Consider `COC(=O)c1ccc2nccc(Oc3cc(NC(C)=O)cc(OC)c3)c2c1` [Compound 42, methyl 4-(3-acetamido-5-methoxyphenoxy)quinoline-6-carboxylate], for which the minimal effective concentration was 0.001 to 1 µM.

The test is the same for the next values; noted with them: 1 nM to 30 μM, read-out: Mitotic Arrest (≥5%).
With `COC(=O)c1ccc2nccc(Oc3cc(NC(C)=O)cc(OC)c3)c2c1` [Compound 42, methyl 4-(3-acetamido-5-methoxyphenoxy)quinoline-6-carboxylate], the minimal effective concentration fell in the range of 0.001 to 1 µM.

Still in this test, the particulars now being: 1 nM to 30 μM, read-out: Proliferative arrest (>50%).
Turning to `COC(=O)c1ccc2nccc(Oc3cc(NC(C)=O)cc(OC)c3)c2c1` [Compound 42, methyl 4-(3-acetamido-5-methoxyphenoxy)quinoline-6-carboxylate], the IC50 lay in the range of 1 to 1000 nM.

In a further test the test system is A549. Briefly: MECP in cancer cell line. The test is classed as cell-based. The conditions noted are these: Homo sapiens. As to the method: (§1) Six lung cancer cell lines (NCI-H23, NCI-H460, NCI-H596, NCI-H2170, Calu-6 and A549), two colon cancer cell lines (HCT116 and SW460), one breast cancer cell line MDA-MB-231, one gastric cancer cell line NCI-N87, one prostate cancer cell line DU145, one cervical cancer cell line Hela, and one glioblastoma cell line T98G were obtained from ATCC. The T2 HCC cell line was derived from a mouse liver cancer model initiated by a transgene of MYC. All cell lines were cultured in DMEM (Gibco, Cleveland, TN, USA) supplemented with 5% fetal bovine serum (Gibco), penicillin (100 U/mL)—streptomycin (100 μg/mL) (Gibco, Cat. No. 15140-122), 2 mM L-glutamine (Gibco, 200 mM solution, Cat. No. 25030081), and 1 mM sodium pyruvate (Gibco, 100 mM solution, Cat. No. 11360070) at 37° C. in a humidified incubator that was maintained at 5% CO2.
(§2) We have previously developed a mechanism-informed phenotypic screening assay to identify novel antimitotic agents. Equipped with a prior understanding of the versatile functions of the chromosomal passenger protein (CPP) complex in orchestrating karyokinesis and cytokinesis, the screening assay is to score for phenotypes typically seen when the CPP complex is disabled. Specifically, the parameters for a positive hit are a temporary elevation of mitotic index (MI) at 24 hours of drug treatment and an accumulation of polyploid cells at 48 hours of drug treatment, indicative of mitotic arrest and cytokinetic failure respectively. These parameters exclude compounds that elicit only a prolonged arrest of cells in mitosis, a phenotype typically provoked by spindle toxins. The screening procedure is briefly summarized here. RPEMYC^H2B-GFP cells engineered to express a Histone 2B-EGFP fusion protein were passaged as batches of 96-well plates, 18-24 hours before exposure to the chemical compounds of the present disclosure at concentrations from 1 nM to 30 μM. At 24, 48 or 72 hours after initiation of treatment, cells were analyzed for either an arrest in mitosis or a change in DNA content by GE IN-Cell Analyzer 2000. As set forth in Table 2 below, a value of greater than or equal to 1 nM and less than or equal to 1.0 μM is marked “A”; a value greater than 1.00 μM and less than or equal to 10.0 μM is marked “B”; a value greater than 10.0 μM and less than or equal to 30.0 μM is marked “C”; and a value greater than 30.0 μM is marked “D.”
Regarding `COC(=O)c1ccc2nccc(Oc3cc(NC(C)=O)cc(OC)c3)c2c1` [Compound 42, methyl 4-(3-acetamido-5-methoxyphenoxy)quinoline-6-carboxylate], the minimal effective concentration was in the range of 0.001 to 1 µM.

The next test concerns HCT116. As to the kind of experiment: MECP in cancer cell line. The test is classed as cell-based. The conditions noted are these: Homo sapiens, HCT-116. As to the method: as §1, §2
Compound `COC(=O)c1ccc2nccc(Oc3cc(NC(C)=O)cc(OC)c3)c2c1` [Compound 42, methyl 4-(3-acetamido-5-methoxyphenoxy)quinoline-6-carboxylate] came in with a minimal effective concentration of 0.001 to 1 µM.

The test system of the next test is Hela. Briefly: MECP in cancer cell line. Particulars: Homo sapiens. The test is classed as cell-based. As to the method: as §1, §2
Take `COC(=O)c1ccc2nccc(Oc3cc(NC(C)=O)cc(OC)c3)c2c1` [Compound 42, methyl 4-(3-acetamido-5-methoxyphenoxy)quinoline-6-carboxylate]: the minimal effective concentration fell in the range of 0.001 to 1 µM.

The test system of a further test is MDA-MB-231. As to the kind of experiment: MECP in cancer cell line. The test is classed as cell-based. Particulars: Homo sapiens. As to the method:
as §1, §2
In the case of `COC(=O)c1ccc2nccc(Oc3cc(NC(C)=O)cc(OC)c3)c2c1` [Compound 42, methyl 4-(3-acetamido-5-methoxyphenoxy)quinoline-6-carboxylate], the minimal effective concentration lay in the range of 0.001 to 1 µM.

A further test deals with SW480. As to the kind of experiment: MECP in cancer cell line. The test is classed as cell-based. The conditions noted are these: Homo sapiens. The method, then:
as §1, §2
Take `COC(=O)c1ccc2nccc(Oc3cc(NC(C)=O)cc(OC)c3)c2c1` [Compound 42, methyl 4-(3-acetamido-5-methoxyphenoxy)quinoline-6-carboxylate]: the minimal effective concentration lay within 0.001 to 1 µM.

The next test has as its system T2 HCC. As to the kind of experiment: MECP in cancer cell line. In kind it is cell-based. The conditions noted are these: Mus musculus. The method, then: as §1, §2
`COC(=O)c1ccc2nccc(Oc3cc(NC(C)=O)cc(OC)c3)c2c1` [Compound 42, methyl 4-(3-acetamido-5-methoxyphenoxy)quinoline-6-carboxylate] had a minimal effective concentration of 0.001 to 1 µM.

Another test deals with NCI-H23. Briefly: MECP in cancer cell line. The test is classed as cell-based. The conditions noted are these: Homo sapiens. The method, then:
as §1, with “CO2. […]” for “CO2.”
Compound `COC(=O)c1ccc2nccc(Oc3cc(NC(C)=O)cc(OC)c3)c2c1` [Compound 42, methyl 4-(3-acetamido-5-methoxyphenoxy)quinoline-6-carboxylate] returned a minimal effective concentration of 0.001 to 1 µM.

A further test deals with NCI-N87. As to the kind of experiment: MECP in cancer cell line. The test is classed as cell-based. The conditions noted are these: Homo sapiens. The method, then: as §1, with “CO2. […]” for “CO2.”
`COC(=O)c1ccc2nccc(Oc3cc(NC(C)=O)cc(OC)c3)c2c1` [Compound 42, methyl 4-(3-acetamido-5-methoxyphenoxy)quinoline-6-carboxylate] showed a minimal effective concentration of 0.001 to 1 µM.

In the next test the test system is A549. As to the kind of experiment: MTT assay of cellular proliferation. The conditions noted are these: Homo sapiens, 50% inhibition of cellular proliferation. In kind it is cell-based. The method, then:
as §1
(§3) The MTT assay measures cellular metabolic activity as a proxy for cell viability and involves the conversion of the water-soluble yellow dye MTT [3-(4,5-dimethylthiazol-2-yl)-2,5-diphenyltetrazolium bromide] into an insoluble purple formazan by the action of mitochondrial reductase. Formazan is then solubilized and its concentration is determined by measuring the optical density (OD) value at a wavelength of 570 nm. The value is in proportional to the number of live cells with excellent linearity up to ˜10^6 cells per well. The MTT assay was used to determine the EC50 value, the concentration of a compound that leads to 50% inhibition of cellular proliferation. Briefly, cells were split when growing to the mid-Log phase. Cells in 100 μL of culture medium were seeded into each well of 96-well microplates and cultivated for 15-24 hours to reach a confluence of 20-30% and were then exposed to drugs at concentrations ranging from 1 nM to 30 μM. At the endpoint, 20 μL of a MTT stock solution in DMSO (5 mg/mL) was added to each well that contains 100 μL of DMEM. The microplates were left in the cell culture incubator for 3-4 h before subjected to solubilization and determination of formazan at A570 in a microplate reader (BioTek ELX808iu). […] Therefore, these compounds might hold a broad utility in the treatment of a large variety of human malignancies.
Background: Tetrazolium assays rely on reduction of a dye to a coloured formazan, in cell work by metabolically active cells.
With `COC(=O)c1ccc2nccc(Oc3cc(NC(C)=O)cc(OC)c3)c2c1` [Compound 42, methyl 4-(3-acetamido-5-methoxyphenoxy)quinoline-6-carboxylate], the EC50 (commonly the concentration at which the effect is half-maximal) is 1 to 1000 nM.

Another test relates to HCT116. As to the kind of experiment: MTT assay of cellular proliferation. In kind it is cell-based. The conditions noted are these: Homo sapiens, HCT-116, 50% inhibition of cellular proliferation. The method, then: as §1, §3
`COC(=O)c1ccc2nccc(Oc3cc(NC(C)=O)cc(OC)c3)c2c1` [Compound 42, methyl 4-(3-acetamido-5-methoxyphenoxy)quinoline-6-carboxylate] displayed an EC50 of 1 to 1000 nM.

The next test deals with Hela. Briefly: MTT assay of cellular proliferation. The test is classed as cell-based. Particulars: Homo sapiens, 50% inhibition of cellular proliferation. As to the method: as §1, §3
Regarding `COC(=O)c1ccc2nccc(Oc3cc(NC(C)=O)cc(OC)c3)c2c1` [Compound 42, methyl 4-(3-acetamido-5-methoxyphenoxy)quinoline-6-carboxylate], the concentration giving a half-maximal response (EC50) is 1 to 1000 nM.

A further test deals with MDA-MB-231. Briefly: MTT assay of cellular proliferation. In kind it is cell-based. Particulars: Homo sapiens; MDA-MB-231, MTT, 50% inhibition of cellular proliferation. The method, then: as §1, §3
As for `COC(=O)c1ccc2nccc(Oc3cc(NC(C)=O)cc(OC)c3)c2c1` [Compound 42, methyl 4-(3-acetamido-5-methoxyphenoxy)quinoline-6-carboxylate], the 50% effective concentration (EC50) lay in the range of 1 to 1000 nM.

The test system of a further test is NCI-H23. As to the kind of experiment: MTT assay of cellular proliferation. The conditions noted are these: Homo sapiens, 50% inhibition of cellular proliferation. In kind it is cell-based. As to the method: as §1, §3
On to `COC(=O)c1ccc2nccc(Oc3cc(NC(C)=O)cc(OC)c3)c2c1` [Compound 42, methyl 4-(3-acetamido-5-methoxyphenoxy)quinoline-6-carboxylate], for which the concentration for a half-maximal effect (EC50) fell in the range of 1 to 1000 nM.

In a further test the test system is NCI-N87. As to the kind of experiment: MTT assay of cellular proliferation. In kind it is cell-based. Particulars: Homo sapiens, 50% inhibition of cellular proliferation. The method, then: as §1, §3
`COC(=O)c1ccc2nccc(Oc3cc(NC(C)=O)cc(OC)c3)c2c1` [Compound 42, methyl 4-(3-acetamido-5-methoxyphenoxy)quinoline-6-carboxylate] showed an EC50 of 1 to 1000 nM.

Another test has as its system SW480. Briefly: MTT assay of cellular proliferation. The test is classed as cell-based. Particulars: Homo sapiens, 50% inhibition of cellular proliferation. The method, then: as §1, §3
Regarding `COC(=O)c1ccc2nccc(Oc3cc(NC(C)=O)cc(OC)c3)c2c1` [Compound 42, methyl 4-(3-acetamido-5-methoxyphenoxy)quinoline-6-carboxylate], the EC50 lay in the range of 1 to 1000 nM.

The next test concerns T2 HCC. As to the kind of experiment: MTT assay of cellular proliferation. The test is classed as cell-based. Particulars: Mus musculus, 50% inhibition of cellular proliferation. The method, then:
as §1, §3
`COC(=O)c1ccc2nccc(Oc3cc(NC(C)=O)cc(OC)c3)c2c1` [Compound 42, methyl 4-(3-acetamido-5-methoxyphenoxy)quinoline-6-carboxylate] returned an EC50 of 1 to 1000 nM.
